Data as given in PubChem BioAssay AID330 (DTP/NCI, 2004).
Several values for one entry are separate records, joined by “and”; a condition that tells them apart may be missing. Equal entries are not always repeated. Toxic doses and inconclusive results are not listed. Peptide text beside a SMILES is read from it.

System: P388 leukemia ip, CD2F1 mice, survival T/C
Assay: NCI In Vivo Anticancer Drug Screen. Data for tumor model P388 Leukemia (intraperitoneal) in CD2F1 (CDF1) mice
Details: endpoint: median survival time, higher = longer survival
In short: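 Mice carrying the transplanted tumor received test compound or vehicle. Survival was recorded in each group, and the value is the treated-group measurement divided by that of the vehicle-treated control group.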

For N#Cc1ccc(NC(=O)Nc2ccc(Cc3ccc(NC(=O)Nc4ccc(C#N)cc4)cc3)cc2)cc1, the T/C (dose: 15.0 mg/kg/injection, schedule: Q01DX005 (ip), vehicle: Klucel (hydroxypropylcellulose) (HPC)) was 97 % of control, the T/C (dose: 30.0 mg/kg/injection, schedule: Q01DX005 (ip), vehicle: Klucel (hydroxypropylcellulose) (HPC)) was 90 % of control and the T/C (dose: 60.0 mg/kg/injection, schedule: Q01DX005 (ip), vehicle: Klucel (hydroxypropylcellulose) (HPC)) was 87 % of control. The T/C (dose: 120.0 mg/kg/injection, schedule: Q01DX005 (ip), vehicle: Klucel (hydroxypropylcellulose) (HPC)) was 94 % of control.

COC(=O)[C@@]12OC[C@]34[C@H]([C@@H](O)[C@@H]1O)[C@@]1(C)C=C(OC5OC(CO)C(O)C(O)C5O)C(=O)[C@@H](C)[C@@H]1C[C@H]3OC(=O)[C@H](OC(=O)/C=C(\C)C(C)C)[C@@H]24 (some centres not stated) was tested, and the T/C (dose: 2.0 mg/kg/injection, schedule: Q01DX005 (ip), vehicle: saline + alcohol) was 100 % of control, the T/C (dose: 4.0 mg/kg/injection, schedule: Q01DX005 (ip), vehicle: saline + alcohol) was 94 % of control and the T/C (dose: 8.0 mg/kg/injection, schedule: Q01DX005 (ip), vehicle: saline + alcohol) was 94 % of control. For the same compound, the T/C (dose: 16.0 mg/kg/injection, schedule: Q01DX005 (ip), vehicle: saline + alcohol) was 106 % of control, the T/C (dose: 32.0 mg/kg/injection, schedule: Q01DX005 (ip), vehicle: saline + alcohol) was 111 % of control and the T/C (dose: 64.0 mg/kg/injection, schedule: Q01DX005 (ip), vehicle: saline + alcohol) was 108 % of control.

With O=NNc1nc2c(Cl)cccc2s1 the T/C (dose: 1.56 mg/kg/injection, schedule: Q01DX009 (ip), vehicle: water) was 102 % of control, the T/C (dose: 3.12 mg/kg/injection, schedule: Q01DX009 (ip), vehicle: water) was 101 % of control and the T/C (dose: 3.15 mg/kg/injection, schedule: Q01DX009 (ip), vehicle: water) was 102 % of control. For the same compound, the T/C (dose: 6.25 mg/kg/injection, schedule: Q01DX009 (ip), vehicle: water) was 99 % of control and 100 % of control, the T/C (dose: 12.5 mg/kg/injection, schedule: Q01DX009 (ip), vehicle: water) was 99 % of control and 114 % of control and the T/C (dose: 25.0 mg/kg/injection, schedule: Q01DX009 (ip), vehicle: water) was 100 % of control and 111 % of control. For the same compound, the T/C (dose: 50.0 mg/kg/injection, schedule: Q01DX009 (ip), vehicle: water) was 106 % of control.

In the case of CC(N)C(=O)NCC(=O)NC(CO)C(=O)NC(CCC(=O)O)C(=O)O (configuration not stated) (H-AGSE-OH; configuration not given here), the T/C (dose: 9.0 mg/kg/injection, schedule: Q01DX005 (ip), vehicle: water) is reported as 96 % of control, the T/C (dose: 18.0 mg/kg/injection, schedule: Q01DX005 (ip), vehicle: water) is reported as 102 % of control and the T/C (dose: 36.0 mg/kg/injection, schedule: Q01DX005 (ip), vehicle: water) is reported as 100 % of control. The T/C (dose: 72.0 mg/kg/injection, schedule: Q01DX005 (ip), vehicle: water) was 110 % of control and the T/C (dose: 144.0 mg/kg/injection, schedule: Q01DX005 (ip), vehicle: water) was 103 % of control.

For O=NN(CC(=O)OCc1ccccc1)NC(=O)OCc1ccccc1, the T/C (dose: 12.5 mg/kg/injection, schedule: Q01DX009 (ip), vehicle: other) was 96 % of control, the T/C (dose: 25.0 mg/kg/injection, schedule: Q01DX009 (ip), vehicle: other) was 97 % of control and the T/C (dose: 50.0 mg/kg/injection, schedule: Q01DX009 (ip), vehicle: other) was 94 % of control. The T/C (dose: 100.0 mg/kg/injection, schedule: Q01DX009 (ip), vehicle: other) was 96 % of control and the T/C (dose: 200.0 mg/kg/injection, schedule: Q01DX009 (ip), vehicle: other) was 96 % of control.

For Cn1c2c(c(=O)c3cc(O)ccc31)CC(O)C(C)(C)O2 (configuration not stated), the T/C (dose: 50.0 mg/kg/injection, schedule: Q01DX005 (ip), vehicle: Klucel (hydroxypropylcellulose) (HPC)) was 102 % of control, the T/C (dose: 100.0 mg/kg/injection, schedule: Q01DX005 (ip), vehicle: Klucel (hydroxypropylcellulose) (HPC)) was 94 % of control and the T/C (dose: 200.0 mg/kg/injection, schedule: Q01DX005 (ip), vehicle: Klucel (hydroxypropylcellulose) (HPC)) was 86 % of control.

With OC(CNc1c2ccccc2nc2ccccc12)COc1c2ccccc2nc2ccccc12 (configuration not stated) the T/C (dose: 60.0 mg/kg/injection, schedule: Q01DX005 (ip), vehicle: saline with Tween-80) was 95 % of control, the T/C (dose: 120.0 mg/kg/injection, schedule: Q01DX005 (ip), vehicle: saline with Tween-80) was 92 % of control and the T/C (dose: 240.0 mg/kg/injection, schedule: Q01DX005 (ip), vehicle: saline with Tween-80) was 100 % of control.

With CNC(=O)NCc1cccnc1 the T/C (dose: 60.0 mg/kg/injection, schedule: Q01DX005 (ip), vehicle: saline) was 107 % of control, the T/C (dose: 120.0 mg/kg/injection, schedule: Q01DX005 (ip), vehicle: saline) was 103 % of control and the T/C (dose: 240.0 mg/kg/injection, schedule: Q01DX005 (ip), vehicle: saline) was 99 % of control.

For COCCOCCOCCOCCOCCOCCOCCOCCOCCOCCOCCOCCOCCOCCOC(=O)CCn1cc(F)c(=O)[nH]c1=O, the T/C (dose: 34.0 mg/kg/injection, schedule: Q04DX002 (ip), vehicle: saline) was 97 % of control, the T/C (dose: 68.0 mg/kg/injection, schedule: Q04DX002 (ip), vehicle: saline) was 111 % of control and the T/C (dose: 136.0 mg/kg/injection, schedule: Q04DX002 (ip), vehicle: saline) was 102 % of control. For the same compound, the T/C (dose: 272.0 mg/kg/injection, schedule: Q04DX002 (ip), vehicle: saline) was 100 % of control.

NC(CSC(c1ccccc1)(c1ccccc1)c1ccccc1)C(=O)OC(c1ccccc1)c1ccccc1 (configuration not stated) was tested, and the T/C (dose: 400.0 mg/kg/injection, schedule: Q04DX003 (ip), vehicle: saline with Tween-80) was 150 % of control and 154 % of control and the T/C (dose: 600.0 mg/kg/injection, schedule: Q04DX003 (ip), vehicle: saline with Tween-80) was 109 % of control.
